Data taken from patent US9278962B2 (Cytokinetics, Inc., priority 2011, dated 2016).

Tested on: rabbit skeletal myofibrils (approximately 90% fast fibers)
Assay: Activation of fast skeletal myofibrils (PUMA coupled-enzyme ATPase assay, AC1.4)
Format: biochemical
Conditions: concentration at which the compound increased enzymatic activity by 40%, calcium at pCa25

SMILES | Mean AC1.4 (Table 2) | also measured
COc1cccc(Cc2nsc(NCCc3cccc(C(F)(F)F)c3)n2)c1 [{3-[(3-methoxyphenyl)methyl](1,2,4-thiadiazol-5-yl)}{2-[3-(trifluoromethyl)phenyl]ethyl}amine] | D (D=>20 uM) | 
NC(=O)c1ccc2sc(NC[C@]3(c4ncccc4F)C[C@H](F)C3)nc2c1 [2-((3-fluoro-1-(3-fluoropyridin-2-yl)cyclobutyl)methylamino)benzo[d] thiazole-5-carboxamide] |  | Mean AC1.4 (Table 4): C (C=10-20 uM)
COc1cccnc1C1(CNc2nc3ccc(C#N)cc3s2)CCC1 [2-((1-(3-methoxypyridin-2-yl)cyclobutyl)methylamino)benzo[d] thiazole-6-carbonitrile] |  | Mean AC1.4 (Table 4): D (D=>20 uM)
NC(=O)c1cccc(-c2nsc(NCC3(c4ccc(F)cc4)CCNCC3)n2)c1 [3-[5-({[4-(4-fluorophenyl)-4-piperidyl]methyl}amino)-1,2,4-thiadiazol-3-yl]benzamide] | D (D=>20 uM) | 
COc1cccc(Cc2nsc(NC[C@H](C)c3ccc(F)cc3)n2)c1 [[(2R)-2-(4-fluorophenyl)propyl]{3-[(3-methoxyphenyl)methyl](1,2,4-thiadiazol-5-yl)}amine] | B (B=1-10 uM) | 
Cn1nc(NC2(c3ncccc3F)CCC2)nc1-c1cc(Br)ccc1F [5-(5-bromo-2-fluorophenyl)-N-(1-(3-fluoropyridin-2-yl)cyclobutyl)-1-methyl-1H-1,2,4-triazol-3-amine] |  | Mean AC1.4 (Table 5): D (D=>20 uM)
COc1ccc(CCNc2nc(Cc3ccc(F)cc3)ns2)cc1 [{3-[(4-fluorophenyl)methyl](1,2,4-thiadiazol-5-yl)}[2-(4-methoxyphenyl)ethyl]amine] | D (D=>20 uM) | 
Cc1ccc(Br)cc1-c1nnc(NC[C@]2(c3ncccc3F)C[C@H](F)C2)s1 [5-(5-bromo-2-methylphenyl)-N-(((trans)-3-fluoro-1-(3-fluoropyridin-2-yl)cyclobutyl)methyl)-1,3,4-thiadiazol-2-amine] |  | Mean AC1.4 (Table 3): A (A=<1 uM)
CC(C)(C)OC(=O)N1CCN(Cc2nsc(NCC(C)(C)c3ccc(F)cc3)n2)CC1 [tert-butyl 4-[(5-{[2-(4-fluorophenyl)-2-methylpropyl]amino}-1,2,4-thiadiazol-3-yl)methyl]piperazinecarboxylate] | D (D=>20 uM) | 
CC(C)(CNc1nc2ccc(C#N)cc2s1)c1ccc(F)cc1 [2-(2-(4-fluorophenyl)-2-methylpropylamino)benzo[d] thiazole-6-carbonitrile] |  | Mean AC1.4 (Table 4): B (B=1-10 uM)
N#Cc1ccc2nc(NCC3(c4ccc(F)cc4)CCC3)sc2c1 [2-((1-(4-fluorophenyl)cyclobutyl)methylamino) benzo[d]thiazole-6-carbonitrile] |  | Mean AC1.4 (Table 4): A (A=<1 uM)
CC(C)(CNc1nc2c(Cl)cc(C#N)cc2s1)c1ccc(F)cc1 [4-chloro-2-(2-(4-fluorophenyl)-2-methylpropylamino)benzo[d] thiazole-6-carbonitrile] |  | Mean AC1.4 (Table 4): A (A=<1 uM)
Cc1ccc(-c2nnc(NC[C@]3(c4ncccc4F)C[C@@H](F)C3)s2)s1 [N-(((cis)-3-fluoro-1-(3-fluoropyridin-2-yl)cyclobutyl)methyl)-5-(5-methylthiophen-2-yl)-1,3,4-thiadiazol-2-amine] |  | Mean AC1.4 (Table 3): D (D=>20 uM)
CC(C)(CNc1nc(CCC(N)=O)ns1)c1ccc(F)cc1 [3-(5-{[2-(4-fluorophenyl)-2-methylpropyl]amino}-1,2,4-thiadiazol-3-yl)propanamide] | C (C=10-20 uM) | 
Fc1ccc(Cc2nsc(NCCc3ccccn3)n2)cc1 [{3-[(4-fluorophenyl)methyl](1,2,4-thiadiazol-5-yl)}(2-(2-pyridyl)ethyl)amine] | D (D=>20 uM) | 
CC(C)(CNc1nc(CCN2CCCCC2)ns1)c1ccc(F)cc1 [[2-(4-fluorophenyl)-2-methylpropyl][3-(2-piperidylethyl)(1,2,4-thiadiazol-5-yl)]amine] | D (D=>20 uM) | 
CC(C)(CNc1nc2c(C(N)=O)cccc2s1)c1ccc(F)cc1 [2-(2-(4-fluorophenyl)-2-methylpropylamino)benzo[d] thiazole-4-carboxamide] |  | Mean AC1.4 (Table 4): C (C=10-20 uM)
CC(C)(CNc1nc(-c2ccc(F)c(C(N)=O)c2)ns1)c1ccc(F)cc1 [2-fluoro-5-(5-{[2-(4-fluorophenyl)-2-methylpropyl]amino}(1,2,4-thiadiazol-3-yl))benzamide] | A (A=<1 uM) | 
COc1ccc(C2(CNc3nc4ccc(Cl)cc4s3)CCC2)nc1 [6-chloro-N-((1-(5-methoxypyridin-2-yl)cyclobutyl)methyl)benzo[d] thiazol-2-amine] |  | Mean AC1.4 (Table 4): B (B=1-10 uM)
NC(=O)c1cccc(-c2nc(NCCCc3ccccc3)ns2)c1 [3-(3-(3-phenylpropylamino)-1,2,4-thiadiazol-5-yl)benzamide] | D (D=>20 uM) | 
Oc1cccc(Cc2nsc(NCc3ccc(Cl)cc3)n2)c1 [3-[(5-{[(4-chlorophenyl)methyl]amino}-1,2,4-thiadiazol-3-yl)methyl]phenol] | D (D=>20 uM) | 
CN(C)CCc1nsc(NCC(C)(C)c2ccc(F)cc2)n1 [[2-(5-{[2-(4-fluorophenyl)-2-methylpropyl]amino}(1,2,4-thiadiazol-3-yl))ethyl]dimethylamine] | D (D=>20 uM) | 
CC(C)(CNc1nsc(-c2cccc(C(N)=O)c2)n1)c1ccc(F)cc1 [3-(3-{[2-(4-Fluorophenyl)-2-methylpropyl]amino}-1,2,4-thiadiazol-5-yl)benzamide] | B (B=1-10 uM) | 
COC(=O)NCc1nsc(NCC(C)(C)c2ccc(F)cc2)n1 [N-[(5-{[2-(4-fluorophenyl)-2-methylpropyl]amino}(1,2,4-thiadiazol-3-yl))methyl]methoxycarboxamide] | B (B=1-10 uM) | 
Cn1cc(-c2nnc(NC[C@]3(c4ncccc4F)C[C@H](F)C3)s2)cn1 [N-((3-fluoro-1-(3-fluoropyridin-2-yl)cyclobutyl)methyl)-5-(1-methyl-1H-pyrazol-4-yl)-1,3,4-thiadiazol-2-amine] |  | Mean AC1.4 (Table 3): D (D=>20 uM)
CC(C)(CNc1nc(CCC(=O)N2CC[C@H](O)C2)ns1)c1ccc(F)cc1 [1-((3S)-3-hydroxypyrrolidinyl)-3-(5-{[2-(4-fluorophenyl)-2-methylpropyl]amino}(1,2,4-thiadiazol-3-yl))propan-1-one] | D (D=>20 uM) | 
N#Cc1ccc(F)c(-c2nnc(NC[C@]3(c4ncccc4F)C[C@H](F)C3)s2)c1 [4-fluoro-3-(5-((3-fluoro-1-(3-fluoropyridin-2-yl)cyclobutyl)methylamino)-1,3,4-thiadiazol-2-yl)benzonitrile] |  | Mean AC1.4 (Table 3): B (B=1-10 uM)
N#Cc1ccc(F)c(-c2nnc(NCC3(c4ncccc4F)CCC3)s2)c1 [4-fluoro-3-(5-((1-(3-fluoropyridin-2-yl)cyclobutyl)methylamino)-1,3,4-thiadiazol-2-yl)benzonitrile] |  | Mean AC1.4 (Table 3): B (B=1-10 uM)
Cn1nc(NC2(c3ncccc3F)CCC2)nc1-c1cc(C(N)=O)ccc1F [4-fluoro-3-(5-(1-(3-fluoropyridin-2-yl)cyclobutylamino)-2-methyl-2H-1,2,4-triazol-3-yl)benzamide] |  | Mean AC1.4 (Table 5): D (D=>20 uM)
CC(C)(CNc1nc(-c2ccc(C(N)=O)nc2)ns1)c1ccc(F)cc1 [5-(5-{[2-(4-fluorophenyl)-2-methylpropyl]amino}-1,2,4-thiadiazol-3-yl)pyridine-2-carboxamide] | A (A=<1 uM) | 
